For data set [1], the system named is mice. The experiment in a line: Overall behavior and reactivities in mice. The conditions noted are these: i.p. The class given is in vivo. As to the method: (§1) The results of toxicological and neuropsychopharmacological tests which were carried out with the products according to the invention have been summarized below. In these tests, solutions of the said products in distilled water were administered intraperitoneally in a volume of 20 ml/kg to male mice and in a volume of 5 ml/kg to male rats.
(§2) Groups of 3 animals are observed before and then 0.25 h, 0.50 h, 1 h, 2 h, 3 h and 24 h after the administration of CRL 41 378. The following observations are made:
(§3) Groups of 3 animals are observed before and then 0.25 h, 0.50 h, 1 h, 2 h, 3 h and 24 h after the administration of CRL 41 329.

The next data set relates to rats. The data set can be described thus: Overall behavior and reactivities in rats. Type of data set: in vivo. The conditions noted are these: i.p. Here is the method: as §1, §2, §3
The subject of data set [2] is depressions and depressive states. The data set can be described thus: Clinical trials in depression and depressive states. The class given is in vivo, human. The conditions noted are these: daily oral administration to adults. Here is the method:
The clinical trials which have been undertaken have made it possible to determine that the daily dose to be administered orally to adults, in the treatment of depressions and depressive states, is generally between 3 and 120 mg for the products of the formulae Ia and Ib according to the invention.

Data set [3] deals with hypothermia, righting behavior and stereotypies induced by apomorphine. The experiment in a line: Interaction with apomorphine in mice. The class given is in vivo. Conditions: i.p. Here is the method: as §1
CRL 41 378 is administered to groups of 6 mice 30 minutes before the subcutaneous injection of 1 or 16 mg/kg of apomorphine.

In data set [4] the test system is central nervous system (CNS). The experiment in a line: Neuropsychopharmacological profile (conclusions of the tests). The class given is in vivo, mice and rats. Conditions: i.p. As to the method: as §1
In data set [5] the test system is anesthetized dogs. The experiment in a line: Cardiovascular study in anesthetized dogs. The class given is in vivo. As to the method:
Groups of 2 adult dogs (each weighing 10 to 18 kg), anesthetized with nembutal, receive each test product (i) by intraduodenal administration at successive doses of 0.1 mg/kg, 0.5 mg/kg, 1 mg/kg, 2.5 mg/kg, 5 mg/kb, 10 mg/kg and 20 mg/kg, and then (ii) if appropriate, by intravenous administration at a dose of 10 mg/kg. The effects of 10 μg/kg of isoprenaline and/or 2 μg/kg of norepinephrine after the intraduodenal administration of a cumulative dose of 39.1 mg/kg are also assessed.
The following are measured: the total arterial blood pressure, the diastolic arterial blood pressure, the heart rate, the blood flows through the femoral and cerebral arteries and saphenous veins, the rectal temperature, the skin temperature and the pressure of the gases (essentially O2) dissolved in the arterial blood.

A further data set relates to male mice. The experiment in a line: Acute toxicity, intraperitoneal (LD0, LD30, LD60, LD100). Type of data set: in vivo. Here is the method:
as §1

Data set [6] concerns stereotypies induced by amphetamine. The experiment in a line: Interaction with amphetamine (rats). The class given is in vivo. The conditions noted are these: i.p.; amphetamine 2 mg/kg. Here is the method:
as §1
Amphetamine (2 mg/kg) is injected intraperitoneally into groups of 6 rats 30 minutes after the administration of CRL 41 378.

Data set [7] deals with mice. The data set can be described thus: Asphyxiant anoxia caused by gallamine triiodoethylate. The class given is in vivo. The conditions noted are these: i.p., gallamine triiodoethylate 32 mg/kg. Here is the method:
as §1
Groups of 10 mice receive CRL 41 378 30 minutes before the intraperitoneal administration of 32 mg/kg of gallamine triiodoethylate (reference curarizing agent).

Data set [8] concerns trembling and head twitches induced by 5-hydroxytryptophan (5-HTP). The data set can be described thus: Interaction with 5-hydroxytryptophan in association with an MAOI (nialamide). The class given is in vivo, male mice. Here is the method:
The purpose of the procedure used is to investigate the activity of each product according to the invention as regards the trembling induced by 5-hydroxytryptophan (5-HTP) in association with an MAOI (in this case nialamide).
Each test product, in solution in distilled water, is administered intraperitoneally in a volume of 20 ml/kg to male mice.
Groups of 10 mice receive nialamide (20 mg/kg, administered gastrically) at time T-18 h, each test product at time T-0.5 h and then (±)-5-HTP (20 mg/kg, administered intraperitoneally) at time T. Immediately after the injection of the (±)-5-HTP, the mice are individually placed in transparent plastic boxes. The generalized trembling, the partial trembling and the head twitches are noted on a yes/no basis for 2 h.

Data set [9] concerns mice. The data set can be described thus: Behavioral despair (forced immersion). The conditions noted are these: mice which have been forcibly immersed, i.p. Type of data set: in vivo. Here is the method: as §1
Half an hour after they have received CRL 41 378, groups of 6 mice are placed in a beaker filled with water to a height of 6 cm. The total period of immobility between the 2nd and 6th minutes following immersion is noted.

For data set [10], the system named is hypothermia and ptosis induced by reserpine. The experiment in a line: Interaction with reserpine. Type of data set: in vivo. Conditions: mice, i.p.; reserpine 2.5 mg/kg. Here is the method: as §1
Four hours after the intraperitoneal injection of 2.5 mg/kg of reserpine, groups of 12 mice receive CRL 41 378.

Data set [11] relates to hypothermia, trembling and peripheral cholinergic symptoms induced by oxotremorine. The data set can be described thus: Interaction with oxotremorine. The class given is in vivo. Conditions: mice, i.p.; oxotremorine 0.5 mg/kg. Here is the method: as §1
CRL 41 378 is administered to groups of 6 mice 0.5 h before the intraperitoneal injection of 0.5 mg/kg of oxotremorine.

Data set [12] deals with anesthetized dogs. The experiment in a line: Cardiovascular study in anesthetized dogs. The conditions noted are these: intraduodenal. The class given is in vivo.
Data set [13] relates to mice. The data set can be described thus: Intergroup aggressiveness. The class given is in vivo. Conditions: mice, i.p. As to the method: as §1
After they have stayed for 3 weeks in the two halves of a cage divided by an opaque partition, groups of 3 mice receive CRL 41 378. Half an hour later, the two groups from the same cage are brought together by removal of the partition and the number of fights which occur in 10 minutes is noted.

Data set [14] deals with mice. The experiment in a line: Motility reduced by hypoxic aggression (acute hypobaric anoxia). Type of data set: in vivo. The conditions noted are these: i.p. As to the method: In these tests, solutions of the said products in distilled water were administered intraperitoneally in a volume of 20 ml/kg to male mice and in a volume of 5 ml/kg to male rats.
A further data set concerns pregnant rabbits. The data set can be described thus: Teratogenic effects on pregnant rabbits. The class given is in vivo.
Data set [15] deals with mice. The data set can be described thus: Electric shock. Type of data set: in vivo. Conditions: i.p. As to the method: as §1
The test is performed on groups of 10 mice 30 minutes after the administration of CRL 41 378.

Data set [16] has as its system hypothermia induced by apomorphine. The data set can be described thus: Interaction with apomorphine by gastric administration. The class given is in vivo. The conditions noted are these: Mus musculus, male mice, apomorphine 16 mg/kg s.c., read-out: dose as from which the hypothermia induced by apomorphine is opposed. As to the method: Each test product is administered gastrically to male mice, in a volume of 20 ml/kg, 0.50 h before the subcutaneous injection of 16 mg/kg of apomorphine.

A further data set deals with chicken embryos. Conditions: D. G. UPSHALL, Teratology, 1972; cited from earlier work.
Setting [17] is: i.p., nialamide + (±)-5-HTP, male mice.

Entries after “also recorded” stand apart in the source; their conditions may differ. A value given as a limit tells only on which side of the number the result lay.

Consider `Cl.Fc1ccccc1C1CN=CNC1` (stereo not drawn) [CRL 41 329, 5-(2-fluorophenyl)-1,4,5,6-tetrahydropyrimidine hydrochloride], for which the “overall behavior and reactivities” value with mice [1] (0.5 mg/kg) is “moderate mydriasis for 2 h”; with mice [1] (2 mg/kg, hydrochloride), “sedation (2 out of 3 animals) for 0.5 h; also recorded: moderate and brief mydriasis for 0.5 h”; with mice [1] (8 mg/kg, hydrochloride) it was “sedation (2 out of 3 animals) for 0.5 h; also recorded: weak and brief mydriasis for 0.5 h”; in the data set on mice [1] (32 mg/kg) it was “sedation (3/3) 0.25 h after administration, then (2/3) 0.5 h after administration”; in the data set with rats (0.25 mg/kg), “moderate mydriasis for 3 h”; with rats (1 mg/kg), “significant mydriasis for 3 h”. The “overall behavior and reactivities” value in the data set with rats (4 mg/kg, hydrochloride) was “sedation (3/3) for 2 h; also recorded: a decrease in the reactivity to touch and the muscle tone; also recorded: piloerection (1/3) for 1 h; also recorded: significant mydriasis for at least 3 h (mydriasis still being apparent 24 h after administration)”; in the data set on rats (16 mg/kg, hydrochloride), “sedation (3/3) for 3 h; also recorded: a decrease in the reactivity to touch and the muscle tone; also recorded: significant mydriasis for 3 h (the mydriasis still being apparent 24 h after administration)”. Further, the “results in human therapy (depression)” value in data set [2] is reported as “excellent results”. Also, the “action on hypothermia induced by apomorphine” value in [3] is “significant antagonism of the hypothermia induced by apomorphine, oxotremorine and reserpine”. The antidepressant effects entry in data set [4] is given as “antidepressant effects appearing at all the doses used”. Besides, the “peripheral α-adrenergic stimulant effects” value in [4] was “modest effects capable of reflecting peripheral α-adrenergic stimulation”. The sedative effects entry in data set [4] (hydrochloride) was “sedative effects appearing at high doses; also recorded: sedation with hypomotility; also recorded: low-intensity transient hypothermia”. In addition, the rectal temperature entry in the data set on anesthetized dogs [5] is listed as “increases the rectal temperature”. Further, the skin temperature entry with anesthetized dogs [5] is “increases the rectal temperature and skin temperature”. Also, in the data set on anesthetized dogs [5] (intraduodenal), the arterial blood pressure entry is listed as “tends to increase the arterial blood pressure”. For the same compound, the heart rate entry in the data set with anesthetized dogs [5] (intraduodenal) is recorded as “decrease the heart rate”. Besides, the mydriasis and salivation result in the data set on anesthetized dogs [5] (intraduodenal) is “causes mydriasis and substantial salivation”. For the same compound, the respiratory arrhythmia entry with anesthetized dogs [5] (intraduodenal) is recorded as “causing respiratory arrhythmia”. Moreover, the effects of isoprenaline result in the data set with anesthetized dogs [5] (isoprenaline 10 μg/kg) is “does not cause a distinct modification of the effects of isoprenaline on the diastolic arterial blood pressure and the heart rate”. Also, in the data set on anesthetized dogs [5] (norepinephrine 2 μg/kg), the “hypertension induced by norepinephrine” value is “decreases the hypertension induced by norepinephrine”. The “toxic signs in the animals treated” value in the data set on male mice (64 mg/kg i.p.) was “all the animals treated exhibit salivation, sedation and vasodilation of the tail”; in the data set on male mice (128 mg/kg i.p.), “all the animals have asphyxiant convulsions”. Besides, the “LD0 (maximum non-lethal dose)” value with male mice (intraperitoneal) is “greater than 64 mg/kg”. Also, in the data set on male mice (intraperitoneal), the “LD100 (minimum dose lethal to all the animals)” value is listed as about 128 mg/kg. In addition, the “action on stereotypies induced by amphetamine” value in data set [6] is recorded as “potentiates the stereotypies induced by amphetamine”. Besides, the “time taken for convulsions and death / lethal effects of gallamine triiodoethylate” value in the data set on mice [7] was “aggravation of the lethal effects of electric shock and gallamine triiodoethylate in mice”. For the same compound, the “analogy with β-adrenergic stimulants in the 5-HTP procedure” value in data set [8] (5-HTP + MAOI) is given as “effects analogous to those of isoprenaline”. Moreover, the “intensity of potentiation of 5-HTP effects” value in data set [8] (higher doses, 5-HTP + MAOI, male mice) was “the potentiation being very intense at the doses of 8 to 32 mg/kg”. In data set [8] (setting [17]), the head twitches entry is “distinctly potentiate the partial trembling and the head twitches”. In addition, the partial trembling result in [8] (setting [17]) was “distinctly potentiate the partial trembling and the head twitches”. In addition, in the data set with mice [9], the period of immobility result is given as “no decrease in the period of immobility due to "despair"”. For the same compound, the “action on hypothermia induced by reserpine” value in data set [10] was “significant antagonism of the hypothermia induced by apomorphine, oxotremorine and reserpine”. Further, the “action on hypothermia induced by oxotremorine” value in data set [11] is “significant antagonism of the hypothermia induced by apomorphine, oxotremorine and reserpine”. In addition, the “blood flows through the femoral and vertebral arteries” value in the data set on anesthetized dogs [12] was “decreases the blood flows in the femoral and vertebral arteries”. For the same compound, in the data set on mice [13], the “intergroup aggressiveness (number of fights)” value is “a decrease in the intergroup aggressiveness in mice”. In addition, the “motor recovery after acute hypobaric hypoxia” value in the data set on mice [14] is “a decrease in the motor recovery after hypoxic aggression”. Besides, the teratogenic effects entry in the data set on pregnant rabbits is “devoid of harmful teratogenic effects on pregnant rabbits”. Further, in the data set with mice [15], the “lethal effects of electric shock” value was “aggravation of the lethal effects of electric shock and gallamine triiodoethylate in mice”. In addition, in [16], the minimal effective dose was at least 0.25 mg/kg.
On to `c1ccc(C2=NCCCN2)cc1` [compound No. 2], for which, in the data set on chicken embryos, the teratogenic effect result is “teratogenic”.
With `Clc1ccc(C2CCNC=N2)cc1` (stereo not drawn) [compound No. 18], the teratogenic effect entry in the data set with chicken embryos is listed as “absence of teratogenic effects on chicken embryos”.

The record behind these values is patent US4774248A, “Methods of treating depression and depressive states using 5-phenyl-1,4,5,6-tetrahydropyrimidine derivatives” (priority 1985, dated 1988).
